The source of these data is patent publication US5863916A, “8-aza, 6-aza and 6,8-diaza-1,4-dihydroquinoxaline-2,3-diones and the use thereof as antagonists for the glycine/NMDA receptor” (priority 1997, dated 1999).

In one data set the target is glycine/NMDA receptor. The data set can be described thus: glycine/NMDA receptor affinity (1 μM glycine-stimulated [3H]-MK801 binding, rat brain membranes; also estimated by electrophysiology). The method, then: The assay is conducted using rat brain membrane homogenates that are enriched in NMDA receptors. The membranes are prepared as follows. Frozen rat brains (obtained from Pel-Freez, Rogers, Ark.) are homogenized in 15 volumes (w/v) of ice cold 0.32M sucrose. The homogenate is spun at 1,000×g for ten minutes. The supernatant is collected and spun for 20 minutes at 44,000×g. The pellet is suspended in 15 volumes of water (relative to original brain weight). The homogenate is again spun at 44,000×g for twenty minutes. The pellet is resuspended in 5 volumes of water and the suspension is freeze-thawed 2 times. After the final thaw cycle, the suspension is brought to 15 volumes with water and spun at 44,000×g for twenty minutes. The pellet is resuspended in 5 volumes of ice-cold 10 mM HEPES, and is titrated to pH 7.4 with KOH containing 0.04% Triton X-100. […] The volume is then brought to 15 with ice-cold 10 mM HEPES, pH 7.4, and spun/washed three times with spins of 44,000×g between washes. The final pellet is suspended in three volumes of 50 mM HEPES, pH 7.4 and the protein concentration is determined with a standard dye-binding protein assay (Bio-Rad, Richmond, Calif.). The suspension is stored at -80° C. until used. Only HPLC grade water is used for all buffers and suspensions/washings. The extensive washings are necessary to remove as much endogenous glycine from the membrane preparation as possible.
Nonspecific binding is defined as the […] presence of PCP (final concentration: 100 μM). […] A 500 nM concentration (final) of 5,7-dichlorokynurenic (DCK) acid is added to all assay tubes. This concentration of the glycine antagonist DCK "buffers" most of the residual endogenous glycine that is not removed by the extensive washing steps that are carried out during the membrane preparation procedure.
Filtration is accomplished using a Brandel 48 well cell harvester. Filtered membranes are washed three times with 3 mL each of ice cold buffer. Filters are transferred to scintillation vials and 5 mL of scintillation cocktail is added. The vials are shaken overnight and the radioactivity is counted by liquid scintillation spectroscopy. The assays are done in triplicate and all experiments are conducted at least three times.
The binding affinities at NMDA receptor glycine sites also were estimated by electrophysiological assay either using cloned rat NMDA receptors expressed in Xenopus oocytes, or non-NMDA receptors expressed in oocytes by whole rat brain poly(A)^+ RNA. […] For NMDA receptors Kb s were approximated by averaging values at three subtype combinations (NR1A/NR2A, NR1A/NR2B, and NR1A/NR2C).

The test system of the next data set is MES-induced seizures. The data set can be described thus: anticonvulsant activity, maximum electroshock-induced seizure (MES) experiment in mice. The format is in vivo, mouse. The settings on record: for ED50: Mus musculus, iv, read-out: ED50 as an anticonvulsant in MES experiment. The method, then:
The anticonvulsant activity of the glycine antagonists may be assessed in the maximum electroshock-induced seizure (MES) assay in mice. […] The seizure stimulus parameters were: 50 mA, 60 Hz, rectangular pulse, width 0.8 msec, duration 200 msec. Tonic hind limb extension observed after application of the electrical stimulus was recorded as occurrence of seizure. The drug was applied i.v. as an aqueous basic solution.

Data set [1] relates to glycine binding site of the NMDA receptor. The settings on record: cited from earlier work.
For data set [2], the system named is MES-induced tonic clonic seizures. The data set can be described thus: Example 35: time course and potency in maximum electroshock (MES) model, i.v., mice. The format is in vivo, Swiss-Webster mouse. The settings on record: for protection of mice at the lowest dose: 2 minutes; for animals showing no tonic seizures: 2 minutes after i.v. 5 mg/kg (6-chloro-8-(N-oxy)aza) or 10 mg/kg (6-chloro-7-methyl-8-(N-oxy)aza); for mice protected against seizures: 15 minutes after i.v. 5 mg/kg (6-chloro-8-(N-oxy)aza) or 10 mg/kg (6-chloro-7-methyl-8-(N-oxy)aza); for ED50: Mus musculus, iv, 2 min, Litchfield and Wilcoxon, read-out: ED50, inhibition of MES-induced seizures; for ED50 / 95% confidence limits of ED50 / inhibition of MES-induced seizures / time of maximal anti-MES effect: i.v.; for ED50 / 95% confidence limits of ED50: 2 minutes post injection; for efficacy in inhibiting MES-induced tonic seizures over time: i.v. time course, 2-60 minutes; for inhibition of MES-induced seizures: dose dependence; for time of maximal anti-MES effect: post-injection. The text has this: The objectives of the studies were to determine the time of maximal effect and potency for compounds 6-chloro-8-(N-oxy)aza-1,4-dihydroquinoxaline-2,3-dione and 6-chloro-7-methyl-8-(N-oxy)aza-1,4-dihydroquinoxaline-2,3-dione in the inhibition of maximal electroshock (MES)-induced tonic clonic seizures following intravenous (i.v.) administration in mice.
The time-course study involved a one-factor, between groups design in which animals were divided into groups based on the time between administration of 6-chloro-8-(N-oxy)aza-1,4-dihydroquinoxaline-2,3-dione and 6-chloro-7-methyl-8-(N-oxy)aza-1,4-dihydroquinoxaline-2,3-dione and the MES stimulus. Similarly, the potency study involved a one-factor, between group design in which animals were divided into groups based on drug dose. Each group in both studies consisted of 8 animals.
6-Chloro-8-(N-oxy)aza-1,4-dihydroquinoxaline-2,3-dione and 6-chloro-7-methyl-8-(N-oxy)aza-1,4-dihydroquinoxaline-2,3-dione were dissolved in 0.05M Tris (J. T. Baker) at concentrations of 5 mg/mL and 2.5 mg/mL, respectively.
Experiments were conducted with Swiss-Webster male mice (Simonsen Lab. Inc.). Mice were 5-6 weeks old and weighed 18-24 g upon arrival in the laboratory. In the time course study, mice were treated with an i.v. injection of 6-chloro-8-(N-oxy)aza-1,4-dihydroquinoxaline-2,3-dione (5 mg/kg) or 6-chloro-7-methyl-8-(N-oxy)aza-1,4-dihydroquinoxaline-2,3-dione(10 mg/kg) or vehicle. Mice were tested at 2, 15, 30, or 60 minutes after vehicle or drug administration. […] The electroshock device was a Ugo Basile ECT Unit 7801 (Varese, Italy; Model 24093). The electroshock characteristics were as follows: 50 mA, 60 pulses per second, […], and a 0.2 second train length. […] Tonic seizures were defined as the tonic extension of the forelimbs and hindlimbs. […] Therefore, the result from each animal was an all-or-none phenomenon with either a seizure present or absent following the shock administration. The time point at which 6-chloro-8-(N-oxy)aza-1,4-dihydroquinoxaline-2,3-dione and 6-chloro-7-methyl-8-(N-oxy)aza-1,4-dihydroquinoxaline-2,3-dione produced a maximal response was determinated by analyzing the graphical results. The dose at which 50% of the animals were protected against MES-induced seizures (ED50) was calculated by Litchfield and Wilcoxon Method (Pharm/PCS R. J. Tallarida & R. B. Murray Version 4.2).

The subject of data set [3] is focal cerebral ischemia (MCA occlusion). The data set can be described thus: rat model of permanent focal cerebral ischemia (MCA occlusion), infarct volume. The format is in vivo, Sprague-Dawley rat. The method, then:
Male Sprague-Dawley rats ([…]) were intubated and maintained under anesthesia with ±2% of halothane. Body temperature was maintained at 37.5° C. during surgery by means of a warming pad and a rectal probe connected to the control unit. The common carotid arteries (CCA) were isolated and a loose silk ligature was placed around each CCA. A vertical skin incision was made between the left orbit and the auditory canal, posterior part of zygoma removed, and a small opening (2.0/2.5 mm) drilled dorsorostrally to the foramen ovale under constant saline irrigation. The dura was opened with a microsurgical hook and the brain gently retracted with a fine spatula to expose the bifurcation of the internal carotid artery and the middle cerebral artery. The ipsilateral CCA was ligated and the MCA coagulated from its origin to the olfactory tract. Two hours after MCA occlusion, the clip from the contralateral CCA was removed. […]
Brains were sliced into 2 mm blocks and stained with tetrazolium red (2,3,5-triphenyl tetrazolium chloride). The areas of brain damage were assessed using an image analyzer (Image-1, Universal Imaging Corporation, PA) to determine the volume of cortical and subcortical infarction by integration of areas and the distance between each level.

Data set [4] in a line: blood-brain-barrier crossing inferred from Ki and MES ED50. It counts as in vivo, mouse.
A further data set relates to brain ischemia / neurons. The following applies: cited from earlier work.
Setting [5] is: 20 mg/kg bolus + 14 mg/kg/h for 22 h, 30 min after MCA occlusion.

On to `Cc1nc2[nH]c(=O)c(=O)[nH]c2cc1Br` [Compound 8, 6-Bromo-7-methyl-8-aza-1,4-dihydroquinoxaline-2,3-dione], for which the inhibition constant Ki at glycine/NMDA receptor is roughly 200 nM.

`O=c1[nH]c2cc(Cl)c(Cl)[n+]([O-])c2[nH]c1=O` [6,7-Dichloro-8(N-oxy)aza-1,4-dihydroquinoxaline-2,3-dione]: the Ki on glycine/NMDA receptor was 100 nM. Also, the ED50 with MES-induced seizures stood at 7.5 mg/kg.

Turning to `O=c1[nH]c2cc(Br)c[n+]([O-])c2[nH]c1=O` [6-Bromo-8-(N-oxy)aza-1,4-dihydroquinoxaline-2,3-dione], the Ki at glycine/NMDA receptor is 1000 nM. The ED50 in the data set with MES-induced seizures lay within 1 to 1.5 mg/kg.

`O=C(O)c1cc(O)c2ccc(Cl)cc2n1` [7-Cl-kynurenic acid]: in data set [1], the “receptor binding affinity in vitro” value is reported as “relatively high receptor binding affinity in vitro”.

In the case of `O=c1[nH]c2cc(Cl)c(Cl)nc2[nH]c1=O` [Compound 6, 6,7-Dichloro-8-aza-1,4-dihydroquinoxaline-2,3-dione], the inhibitory constant (Ki) at glycine/NMDA receptor is roughly 200 nM.

In the case of `O=c1[nH]c2ccncc2[nH]c1=O` [Compound 11, 6-Aza-1,4-dihydroquinoxaline-2,3-dione], in the data set with glycine/NMDA receptor, the “activity relative to corresponding QX” value is “about as active as QX”.

For `Cc1c(Cl)cc2[nH]c(=O)c(=O)[nH]c2[n+]1[O-]` [6-Chloro-7-methyl-8-(N-oxy)aza-1,4-dihydroquinoxaline-2,3-dione], in data set [2] (4 mg/kg i.v.), the “protection of mice at the lowest dose” value is 12.5%. In addition, in data set [2], the “animals showing no tonic seizures” value is reported as 8/8, the “mice protected against seizures” value is recorded as 3/8, the ED50 was 6.71 mg/kg and the “efficacy in inhibiting MES-induced tonic seizures over time” value is “decreased over one hour”. Also, in data set [2], the “95% confidence limits of ED50” value is 5.48 to 8.22 mg/kg; the “inhibition of MES-induced seizures” value was “dose dependently, inhibited MES-induced seizures”; the “time of maximal anti-MES effect” value stood at 2 min. The Ki on glycine/NMDA receptor was 50 nM. The ED50 in the data set on MES-induced seizures amounted to 7 mg/kg.

For `O=C(O)c1cc(O)c2c(Cl)cc(Cl)cc2n1` [5,7-dichlorokynurenic acid], the “receptor binding affinity in vitro” value in data set [1] is on record as “relatively high receptor binding affinity in vitro”.

With `[O-][n+]1cc(Cl)cc2nc(O)c(O)nc21` [6-Chloro-8-(N-oxy)aza-1,4-dihydroquinoxaline-2,3-dione], the “protection at the lower dose” value in data set [3] (10 mg/kg bolus + 7 mg/kg/h for 22 h, immediately after MCA occlusion) was “no protection”. Further, in data set [3] (setting [5]), the “reduction in cortical infarct volume” value is on record as 70% and the “reduction in subcortex infarct volume” value was 35%. In data set [3] (20 mg/kg bolus + 14 mg/kg/h for 22 h i.v., immediately after MCA occlusion), the “reduction in cortical infarct volume” value was 67%. In addition, the neuroprotection entry in data set [3] (rat model of focal ischemia) is on record as “significant neuroprotection”. In data set [2] (0.5 mg/kg i.v.), the “protection of mice at the lowest dose” value is reported as 25%. Also, in data set [2], the “animals showing no tonic seizures” value is 8/8, the “mice protected against seizures” value is recorded as 4/8, the 50% effective dose (ED50) stood at 1.26 mg/kg and the “efficacy in inhibiting MES-induced tonic seizures over time” value is reported as “decreased over one hour”. Moreover, in data set [2], the “95% confidence limits of ED50” value is 0.94 to 1.67 mg/kg; the “inhibition of MES-induced seizures” value is reported as “dose dependently, inhibited MES-induced seizures”; the “time of maximal anti-MES effect” value is 2 min. For the same molecule, at glycine/NMDA receptor, the Ki is 600 nM. The ED50 in the data set with MES-induced seizures lay in the range of 1 to 1.5 mg/kg. Further, the “blood-brain-barrier crossing relative to 6,7-dichloro-5-nitro-1,4-dihydroquinoxaline-2,3-dione” value in data set [4] is recorded as “about 1000 times”.

`O=c1[nH]c2cncnc2[nH]c1=O` [Compound 13, 6,8-Diaza-1,4-dihydroquinoxaline-2,3-dione]: the “activity relative to corresponding QX” value in the data set with glycine/NMDA receptor is on record as “about as active as QX”.

For `CNC1(c2ccccc2Cl)CCCCC1=O` (stereo not shown) [ketamine], the neuroprotective efficacy entry in the data set on brain ischemia / neurons is “neuroprotective efficacy both in vitro and in vivo”.

With `O=c1[nH]c2cc(Cl)cnc2[nH]c1=O` [Compound 5, 6-Chloro-8-aza-1,4-dihydroquinoxaline-2,3-dione], the “activity relative to corresponding QX” value in the data set with glycine/NMDA receptor is listed as “about as active as the corresponding 6-chloro-QX”.

In the case of `NC1CCN(O)C1=O` (stereo not shown) [HA-966], in data set [1], the agonist character result is listed as “partial agonist” and the “receptor binding affinity in vitro” value is on record as “micromolar affinity for the glycine binding site”.

For the molecule `O=c1[nH]c2cc(Cl)c(Cl)c([N+](=O)[O-])c2[nH]c1=O` [6,7-dichloro-5-nitro-1,4-dihydroquinoxaline-2,3-dione, reference compound], the Ki on glycine/NMDA receptor is 3.3 nM. The “ED50 as an anticonvulsant in MES experiment” value with MES-induced seizures lay within 4 to 5 mg/kg.

As for `COc1ccc2c(c1)[C@]13CCCC[C@@H]1[C@H](C2)N(C)CC3` [dextromethorphan], in the data set on brain ischemia / neurons, the neuroprotective efficacy result is “neuroprotective efficacy both in vitro and in vivo”.

As for `Cc1cc2[nH]c(=O)c(=O)[nH]c2[n+]([O-])c1` [6-Methyl-8-(N-oxy)aza-1,4-dihydroquinoxaline-2,3-dione], the Ki on glycine/NMDA receptor was 2400 nM. The median effective dose (ED50) with MES-induced seizures lay in the range of 1 to 1.5 mg/kg.

As for `O=C(O)c1cc2ccccc2[nH]1` [indole-2-carboxylic acid], the “receptor binding affinity in vitro” value in data set [1] was “relatively high receptor binding affinity in vitro”.
